This note sets out measurements from patent US9018244B2, “Benzopyran compounds, compositions and uses thereof” (Olema Pharmaceuticals, Inc., priority 2011, dated 2015).

One test relates to mouse uterus. In words: Uterine wet weight in ovariectomized BALB/c mice. It counts as in vivo. The settings on record: for Uterine wet weight, agonist mode (without E2): q.d. three days, 100 mg/ml OP-1038 p.o. in 0.5% CMC; for Uterine wet weight, antagonist mode (+E2): three days, co-treated with 0.1 μg/ml E2 sc. The protocol:
FIG. 9. […] Uterine wet weight was measured at the end of three days after treating ovariectomized BALB/c mice q.d. with vehicle or one of the following treatments (10 mice per group): 50 mg/kg tamoxifen p.o. in 0.5% carboxymethylcellulose (CMC); 50 mg/kg fulvestrant sc in 5% ethanol; […] OP-1038 p.o. in 0.5% CMC. Half the animals in each group were co-treated with 0.1 μg/ml E2 sc in cottonseed oil-ethanol (95:5), or vehicle alone. Animal experiments were conducted at the University of California, San Francisco following institutional animal care and use committee protocols.

Test [1] relates to alkaline phosphatase (AP) activity in ECC-1 cells. In words: Alkaline phosphatase (AP) assay in ECC-1 cells, agonist mode (without E2). Format: cell-based, human. The conditions noted are these: without E2, 3 days. The text has this:
FIG. 2. Alkaline phosphatase (AP) activity in ECC-1 cells correlates with the uterine wet weight of ovariectomized rats, as reported previously in Scafonas, et al. (*; Scafonas et al. “Agonist-like SERM effects on ER alpha-mediated repression of MMPI promoter activity predict in vivo effects on bone and uterus. J Steroid Biochem Mol. Biol. 2008 110(3-5):197-206) and Labrie, et al. (†; Labrie et al. “The combination of a novel selective estrogen receptor modulator with an estrogen protects the mammary gland and uterus in a rodent model: the future of postmenopausal women's health?” Endocrinology. 2003 144(11):4700-6). ECC-1 cells were treated with 500 pM 17β-estradiol (E2) or 1-5 nM anti-estrogens in hormone-depleted medium for 3 days. […] AP activity was measured by incubating a chromogenic AP substrate, p-nitrophenyl phosphate, at 40° C. for 40 minutes followed by measuring the absorbance at 405 nm. […]
FIG. 3. […] ECC-1 cells were treated with 100 nM anti-estrogens and AP activity was measured as described in FIG. 2. […] Note that OP-1038 was statistically different from Aragon Compound 28 (WO2011/156518), EM-343 and Gauthier compound Ia (p≦0.01 (exact p values stated in graph), calculated using Student's t-test).
Method for performing the alkaline phosphatase (AP) assay. […] Absorbance was read at 405 nm using a plate spectophotometer. […]

Test [2] relates to E2-stimulated estrogen response element (ERE)-regulated reporter gene activity. The test is described as follows: ERE-tk109-Luc reporter gene assay in MCF-7 cells. It counts as cell-based, human. The conditions noted are these: 100 pM E2, 18-22 hours. As for the experimental part: FIG. 10. […] A) OP-1074 had similar potency to model anti-estrogens in the ERE reporter gene assay. MCF-7 cells were transiently transfected with ERE-tk109-Luc and treated with anti-estrogens in hormone-depleted medium in the presence of 100 pM E2 for 22 hours. Results were from a single representative experiment and reported as the mean percent induction relative to E2 from triplicate treatments, with error bars representing SEM. […] Results were from a single representative experiment and reported as the mean percent induction relative to E2 from triplicate treatments, with error bars representing SEM. IC50's were calculated using the least squares fit method.
Compounds of invention are tested for their inhibitory activity of estrogen according to the assay methods described in Hodges-Gallagher, L., Valentine, C. V., El Bader, S. and Kushner, P. J. (2007) “Histone Deacetylase Inhibitors Enhance the Efficacy of Hormonal Therapy Agents on Breast Cancer Cells and Blocks Anti-estrogen-Driven Uterine Cell Proliferation” Breast Cancer Res Treat, November; 105(3):297-309. Specifically, an estrogen-responsive reporter gene (ERE-tk109-Luc) was transiently transfected into MCF-7 cells and treated with anti-estrogens in triplicate in the presence of 100 pM 17β-estradiol (E2) for 18-22 hours. Luciferase activity was normalized to activity of E2 alone and IC50's were calculated using the least squares fit method. This method is also described in legend for FIG. 10.

Test [3] has as its system MCF-7 HER2/neu Clone 18 xenograft. In words: Mammary tumor xenograft study. It counts as in vivo, ovariectomized athymic nude mice. The settings on record: 100 mg/kg twice daily by oral gavage, mice implanted with estrogen pellets. An excerpt:
FIG. 13. […] A) Percent change in tumor volume of human MCF-7 HER2/neu clone 18 xenografts in ovariectomized athymic nude mice implanted with estrogen pellets and treated with either tamoxifen (by oral gavage), fulvestrant (Faslodex) by s.c. injection, or OP-1074 (by oral gavage). B) Weights of the animals treated as above. C) Waterfall plot of final tumor volumes compared with volumes at the start of treatment.
The purpose of this study is to examine the ability of OP-1074, to slow or shrink a tamoxifen resistant tumor (MCF-7 HER2/neu Clone 18) xenograft growing on ovariectomized athymic nude mice under stimulation from exogenous estrogen. Clone 18 cells grown in culture are implanted along with 0.18 mg estradiol/90 day release pellets (Innovative Research, Sarasota Fla.) into 55 mice to initiate the experiment. When the tumors have reached 250 cubic millimeters the mice are divided into four groups of 10 mice each and dosing initiated. The four groups are:
1) No hormonal treatment—this group receives daily gavage with vehicle.
2) Tamoxifen citrate 100 mg/kg daily by oral gavage in vehicle.
3) Faslodex 100 mg/kg delivered daily by subcutaneous injection.
4) OP-1074 100 mg/kg twice daily by oral gavage in vehicle with the exception of two weekends in which dosing was once daily.

SMILES strings stand for the structures. “Also recorded” adds a separate entry of the source.

In the case of `CC1=C(c2ccc(O)cc2)C(c2ccc(OCCN3CC[C@@H](C)C3)cc2)Oc2cc(O)ccc21` (stereo partly drawn) [OP-1038, 3-(4-hydroxyphenyl)-4-methyl-2-(4-{2-[(3R)-3-methylpyrrolidin-1-yl]ethoxy}phenyl)-2H-chromen-7-ol], in the test on mouse uterus, the “Uterine wet weight, agonist mode (without E2)” value was “not significantly different from control or fulvestrant” and the “Uterine wet weight, antagonist mode (+E2)” value is recorded as “not different from fulvestrant”. Moreover, in test [1], the “Estrogenic activity: AP activity, percent induction relative to E2” value is “lacks estrogenic activity; also recorded: less estrogenic than Aragon Compound 28”. In addition, in test [2], the “Antagonism of E2-stimulated ERE-regulated reporter gene activity” value is recorded as “improved potency; also recorded: potent antagonists”.

Consider `CC1=C(c2ccc(O)cc2)[C@H](c2ccc(OCCN3CC[C@@H](C)C3)cc2)Oc2cc(O)ccc21` [OP-1074, (2S)-3-(4-hydroxyphenyl)-4-methyl-2-(4-{2-[(3R)-3-methylpyrrolidin-1-yl]ethoxy}phenyl)-2H-chromen-7-ol], for which, in test [3], the “Tumor volume change of xenografts” value is “rapid and complete regression”. Moreover, in the test with mouse uterus, the “Uterine wet weight, agonist mode (without E2)” value is on record as “essentially pure anti-estrogen” and the “Uterine wet weight, antagonist mode (+E2)” value was “complete anti-estrogen”. Further, the “Estrogenic activity: AP activity, percent induction relative to E2” value in test [1] was “essentially no estrogenic activity; also recorded: lack estrogenic activity; also recorded: did not stimulate AP activity”. The “Antagonism of E2-stimulated ERE-regulated reporter gene activity” value in test [2] is reported as “improved potency; also recorded: potent antagonists”.
